Results: US20230227466A1, “SUBSTITUTED THIENOPYRIMIDINES THAT INTERACT WITH THE RAS SUPERFAMILY FOR THE TREATMENT OF CANCERS, INFLAMMATORY DISEASES, RASOPATHIES, AND FIBROTIC DISEASE” (SHY Therapeutics, LLC, priority 2020, published 2023)
Like-named read-outs stand apart in the source and are kept apart here.

Legend:
[1] = tested on: Akt phosphorylation in Panc-1 cells; test: Western AKT cell-based phosphorylation assay; design: species or system human; details: at 10 μM, values in brackets < > are activation %, not inhibition
Method in brief: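 Phospho-Akt (Ser473) western blot of Panc-1 lysates, with Ponceau S to confirm uniform loading. Before lysis, cells were serum-starved overnight (0.5% FBS), incubated 6 h at 37° C with 10 μM compound in 0.3% DMSO and stimulated 15 min with 1.5 ng/ml EGF.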

KRas G12C mutant = target: T1, KRas G12C mutant (Homo sapiens, UniProt P01116, G12C); test: Ras GTP binding domain inhibition assay (labeled-GTP competition, cell-free)
T1 construct: made in house
Method in brief: (§1)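 Immobilized His-tagged protein (Ni plate, 10-30 μg/mL, overnight 4° C); compound 20 μM or dilution series, 1% DMSO, 3 h RT, ±Sos 556-1049 last hour; Cy3/Cy5-GTP 100 nM, 45 min RT; 3× wash; bound fluorescence read.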

KRas G12D mutant = target: T2, KRas G12D mutant (Homo sapiens, UniProt P01116, G12D); test: as above
T2 construct: made in house
Method in brief: as §1

KRas Q61H mutant = target: T3, KRas Q61H mutant (Homo sapiens, UniProt P01116, Q61H); test: as above
T3 construct: made in house
Method in brief: as §1

[2] = with SOS, read-out: KRas G12C mutant + SOS: % inh.
[3] = without SOS, read-out: KRas G12C mutant: % inh.
[4] = with SOS, read-out: KRas G12D mutant + SOS: % inh.
[5] = without SOS, read-out: KRas G12D mutant: % inh.
[6] = with SOS, read-out: KRas Q61H mutant + SOS: % inh.
[7] = without SOS, read-out: KRas Q61H mutant: % inh.

inhibition at 20 µM (KRas G12C mutant; [2])	inhibition at 20 µM (KRas G12C mutant; [3])	inhibition at 20 µM (KRas G12D mutant; [4])	inhibition at 20 µM (KRas G12D mutant; [5])	inhibition at 20 µM (KRas Q61H mutant; [6])	inhibition at 20 µM (KRas Q61H mutant; [7])	IC50 (KRas Q61H mutant; with SOS)	SMILES	% inh of AKT phosphorylation in PANC-1 [1]
26 to 50%	51 to 75%	51 to 75%	51 to 75%	51 to 75%	51 to 75%	–	Cc1c(-c2ccn(C(C)C)n2)sc2nc(-c3nccn3C)nc(NC[C@H]3CCC(=O)N3)c12 [Compound 52, (R)-5-(((6-(1-Isopropyl-1H-pyrazol-3-yl)-5-methyl-2-(1-methyl-1H-imidazol-2-yl)thieno[2,3-d]pyrimidin-4-yl)amino)methyl)pyrrolidin-2-one]	0 (0% inhibition)
76 to 100%	76 to 100%	76 to 100%	76 to 100%	76 to 100%	76 to 100%	5 to 10 µM	Cc1sc2c(O)nc(-c3ccccn3)nc2c1-c1ccccn1 [Compound 26, 6-Methyl-2,7-di(pyridin-2-yl)thieno[3,2-d]pyrimidin-4-ol]	0 (0% inhibition)
76 to 100%	51 to 75%	76 to 100%	26 to 50%	76 to 100%	51 to 75%	1 to 4.99 µM	CO[C@H]1CC[C@@H](Nc2nc(-c3nccn3C)nc3sc(-c4ccn(C(C)C)n4)c(C)c23)C1 [Compound 32, 6-(1-Isopropyl-1H-pyrazol-3-yl)-N-((1R,3S)-3-methoxycyclopentyl)-5-methyl-2-(1-methyl-1H-imidazol-2-yl)thieno[2,3-d]pyrimidin-4-amine]	0 (0% inhibition)
51 to 75%	26 to 50%	1 to 25%	0%	51 to 75%	26 to 50%	–	CO[C@@H]1CCCN(c2nc(-c3nccn3C)nc3sc(-c4ccn(C(C)C)n4)c(C)c23)C1 [Compound 50, (R)-6-(1-Isopropyl-1H-pyrazol-3-yl)-4-(3-methoxypiperidin-1-yl)-5-methyl-2-(1-methyl-1H-imidazol-2-yl)thieno[2,3-d]pyrimidine]	D (76-100% inhibition)
51 to 75%	1 to 25%	26 to 50%	0%	51 to 75%	51 to 75%	–	CO[C@H]1CCCN(c2nc(-c3nccn3C)nc3sc(-c4ccn(C(C)C)n4)c(C)c23)C1 [Compound 49, (S)-6-(1-Isopropyl-1H-pyrazol-3-yl)-4-(3-methoxypiperidin-1-yl)-5-methyl-2-(1-methyl-1H-imidazol-2-yl)thieno[2,3-d]pyrimidine]	D (76-100% inhibition)
76 to 100%	76 to 100%	51 to 75%	51 to 75%	76 to 100%	51 to 75%	5 to 10 µM	CO[C@H]1CC[C@@H](Nc2nc(-c3nccn3C)nc3sccc23)C1 (racemic) [Compound 10, Rac-N-((1R,3S)-3-methoxycyclopentyl)-2-(1-methyl-1H-imidazol-2-yl)thieno[2,3-d]pyrimidin-4-amine]	0 (0% inhibition)
26 to 50%	26 to 50%	26 to 50%	1 to 25%	26 to 50%	26 to 50%	–	Cc1c(-c2ccn(C(C)C)n2)sc2nc(-c3nccn3C)nc(NCc3ncc[nH]3)c12 [Compound 57, N-((1H-Imidazol-2-yl)methyl)-6-(1-isopropyl-1H-pyrazol-3-yl)-5-methyl-2-(1-methyl-1H-imidazol-2-yl)thieno[2,3-d]pyrimidin-4-amine]	0 (0% inhibition)
